# Measurements taken from patent publication US20090264421A1 (priority 2007, published 2009).
# What was measured:
# normal plasma cells = test: Survival of normal plasma cells and matched normal leucocytes, trypan blue exclusion; assay type: cell-based, human; settings: 24 h exposure
# Procedure: A and B. Effects of chaetocin on survival of MGUS plasma cells and matched patient normal leucocytes from two patients (assessed by trypan blue exclusion assay, 24 h chaetocin exposures). C and D. Effects of chaetocin on survival of normal plasma cells and matched patient normal leucocytes from two patients (assessed by trypan blue exclusion assay, 24 h chaetocin exposures).
# [1] = Tolerability of IP chaetocin in mice; assay type: in vivo, mouse; settings: 0.6 mg/kg and 0.25 mg/kg IP twice weekly for two weeks
# Procedure: Subsequent in vivo work in mice utilized the following formulation: 0.06 mg/mL chaetocin in 20% PEG400 and 79.14% […] NaCl with 0.86% DMSO as a cosolvent. This system retains in vitro activity in cell culture models.
# TrxR1 = target: T1, TrxR1 (Rattus norvegicus, UniProt O89049); settings: substrate of TrxR1, NADPH oxidation
# T1 sequence (O89049 1-499): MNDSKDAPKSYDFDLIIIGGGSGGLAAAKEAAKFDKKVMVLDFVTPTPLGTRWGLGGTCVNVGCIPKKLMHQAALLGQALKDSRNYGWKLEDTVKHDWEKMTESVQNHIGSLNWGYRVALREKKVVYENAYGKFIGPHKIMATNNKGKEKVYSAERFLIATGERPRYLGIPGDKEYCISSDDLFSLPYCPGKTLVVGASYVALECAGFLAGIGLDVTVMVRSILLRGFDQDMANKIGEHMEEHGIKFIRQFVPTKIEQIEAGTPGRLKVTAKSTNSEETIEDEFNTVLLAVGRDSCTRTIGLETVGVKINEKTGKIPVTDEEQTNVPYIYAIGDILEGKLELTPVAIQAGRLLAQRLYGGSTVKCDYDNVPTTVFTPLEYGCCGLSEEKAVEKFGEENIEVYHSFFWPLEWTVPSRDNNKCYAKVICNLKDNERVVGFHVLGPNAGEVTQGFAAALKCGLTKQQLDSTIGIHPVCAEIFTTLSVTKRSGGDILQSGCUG
# Excerpt: Reagents: Chaetocin, β-Nicotinamide adenine dinucleotide 2′-phosphate reduced tetrasodium salt hydrate (NADPH), rat liver thioredoxin reductase, 5,5′-dithiobis(2-nitrobenzoic acid) (DTNB), oxidized glutathione (GSSG), bovine insulin, gliotoxin, thioredoxin reductase assay kit, anti-actin antibody and Celytic lysis reagent were purchased from Sigma (St. Louis, Mo.); yeast glutathione reductase and Complete Protease Inhibitor Tablets from Roche (Indianapolis, Ind.); BCA protein from Pierce (Rockford, Ill.); oxidized E. coli thioredoxin and dithiothreitol (DTT) from Promega (Madison, Wis.); verruculogen from Calbiochem (San Diego, Calif.); 4-acetamido-4′-maleimidylstilbene-2,2′-disulfonic acid (AMS) and Lipofectamine-Plus from Invitrogen (Carlsbad, Calif.); chaetomin from Alexis Biochemicals (San Diego, Calif.); and anti-thioredoxin antibody from Cell Signaling (Beverly, Mass.). HeLa cells were obtained from ATCC.
# Steady-state kinetics: The 100 μL reaction consisted of 100 mM potassium phosphate (pH 7.0), 10 mM EDTA, 0.0004 U/μL thioredoxin reductase and chaetocin or other compounds as indicated. The assay was carried out in a 96-well quartz plate and the oxidation of NADPH was measured as a change in absorption at 340 nm. The initial velocities of the reaction were calculated from the decrease in the absorbance between 0 and 5 min (slope), and on a pathlength of 0.3 cm and NADPH ε=6.22 mmol^−1*cm^−1*L. The velocity versus concentration data were then analyzed using SigmaPlot's Enzyme Kinetics 1.3 program (Systat Software, San Jose, Calif.).
# [2] = tested on: RPMI 8226 myeloma xenografts; test: RPMI 8226 SCID mouse flank xenograft model; assay type: in vivo; settings: 0.25 mg/kg intraperitoneally twice weekly, three weeks of treatment of established tumors, p<0.05
# Procedure: FIG. 4. Patient myeloma cells treated in mixed culture are selectively killed by chaetocin in comparison to other bone marrow leukocytes, and chaetocin has in vivo anti-myeloma activity. A-C. Unsorted bone marrow leukocytes obtained from 4 patients with multiple myeloma were treated with 100 nM Chaetocin or diluent for 24 hours and then subjected to FACS analyses to examine induced cell death in various leukocyte subpopulations. […] Results from 4 unsorted patient marrow leukocyte samples are indicated in C, indicating selective killing of myeloma cells by chaetocin in mixed culture in all 4 examined patient samples. In A-C, surviving cells were defined as those with low annexin and 7-AAD staining. D. Chaetocin has in vivo anti-myeloma activity in the RRMI 8226 SCID flank xenograft mouse model. […]
# In vivo experiments: The in vivo effects of chaetocin were preliminarily explored at Southern Research Institute with assistance from Dr. William Waud (Birmingham, Ala.) in SCID mice using subcutaneously flank-implanted RPMI 8226 myeloma xenografts using a twice-weekly intraperitoneal administration schedule, with chaetocin formulated in 25% DMSO and 75% PEG400. Tumor weights were calculated from volumes derived from direct tumor measurements. […]
# A549 cells = assay type: cell-based, human; settings: within 1-2 minutes
# Excerpt: Measurement of intra- and extracellular chaetocin levels: Tumor cells treated with indicated chaetocin concentrations were washed twice with ice cold PBS, immediately solubilized in 0.5 M perchloric acid, and evaluated “real time” via HPLC using Beckman System Gold Nouveau Software with a dual pump 125 gradient pump system, 507e autosampler, 168 diode array detector, and Beckman Ultrasphere ODS column (4.6 mm×[…]×7 μm) using the following elution profile: 100% water to 100% methanol linear gradient over 40 minutes, followed by a 10 minute period of elution with 100% methanol. Quantitation was accomplished using a standard curve of peak areas derived from analogous HPLC data using varying concentrations of chaetocin.
# thioredoxin reductase = target: T2, thioredoxin reductase (Rattus norvegicus, UniProt O89049); test: Thioredoxin reductase activity assay (gel-based oxidation state of thioredoxin method); assay type: biochemical
# T2 construct: rat liver thioredoxin reductase; purchased Sigma (St. Louis, Mo.); host or cells: rat liver
# T2 sequence (O89049 1-499): T1 sequence (O89049 1-499)
# Procedure: HeLa cells were obtained from ATCC.
# Thioredoxin Reductase Activity Assay (gel-based oxidation state of thioredoxin method): Reduction of thioredoxin by thioredoxin reductase was measured by the decrease in electrophoretic mobility caused by covalent modification of thioredoxin (by AMS) when the disulfide is reduced. […] At the indicated time, a 5 μL sample was removed and immediately added to 5 μL of 30 mM AMS in TE buffer (pH 7.5). The AMS was allowed to react (15 minutes at 22° C.) with reduced thioredoxin sulfhydryl groups, then the samples were mixed with non-reducing sample buffer and were electrophoresed on 18% Tris-HCl SDS-PAGE gels. The gels were stained with Coomassie blue and bands were imaged and quantitated using a Syngene InGenius gel documentation system (Frederick, Md.).
compound,measurement,setting,value
CN1C(=O)[C@@]23C[C@]4([C@]56C[C@@]78SS[C@@](CO)(C(=O)N7[C@H]5Nc5ccccc56)N(C)C8=O)c5ccccc5N[C@@H]4N2C(=O)[C@]1(CO)SS3 [chaetocin],effect on granulocytes and other leukocytes,normal plasma cells,largely sparing granulocytes and other leukocytes
same,GI toxicity,[1],some GI toxicity was noted
same,tolerability,[1],tolerated
same,Km,TrxR1,4.6 ± 0.6 µM
same,T/C values,[2],50-60%
same,intracellular accumulation relative to applied extracellular concentration,A549 cells,10 fold
same,inhibition of reduction of thioredoxin by thioredoxin reductase,"thioredoxin reductase; gel-based, AMS modification",inhibit the ability of TrxR1 to reduce Trx
same,IC50,"thioredoxin reductase; initial linear portion of the reaction, read-out: IC50, reduction of thioredoxin by thioredoxin reductase",4 µM
